Assay results taken from ChEMBL document CHEMBL3885861, “Open TG-GATES”.

Organism: Rattus norvegicus
Experiment: Open TG-GATES - Regimen: Single
Type: toxicity, organism-based, Sprague-Dawley
Design: regimen Single, gender Male, age 6 weeks
Settings: in vivo, po, 0 mg/kg, route gavage, dose level Control; for APTT / Bas / Eos / Fbg / Hb / Ht / Lym / MCH / MCHC / MCV / Mono / Neu / PT / Plat / RBC / Ret / WBC: tissue Blood; for KIDNEY_L / KIDNEY_R / KIDNEY_TOTAL: tissue Kidney; for LIVER: tissue Liver; for A/G / ALP / ALT / AST / BUN / CRE / Ca / Cl / DBIL / GLC / IP / K / LDH / Na / PL / RALB / TBIL / TC / TG / TP / gamma-GTP: tissue Plasma

## CC(C)(S)[C@@H](N)C(=O)O [PENICILLAMINE]
3 h
  TERMINAL_BW: 202 g
  APTT: 15 s
  Bas: 0%
  Eos: 1%
  Fbg: 302 mg/dL
  Hb: 13.8 g/dL
  Ht: 42.5%
  Lym: 79.4%
  MCH: 21.6 pg
  MCHC: 32.5%
  MCV: 66.4 fL
  Mono: 2.8%
  Neu: 15.8%
  PT: 14.4 s
  Plat: 123.9 x10_4/uL
  RBC: 639.6 x10_4/ul
  Ret: 9.1%
  WBC: 90 x10_2/uL
  KIDNEY_L: 0.9 g
  KIDNEY_R: 0.9 g
  KIDNEY_TOTAL: 1.7 g
  LIVER: 9 g
  A/G: 0.9
  ALP: 1505 IU/L
  ALT: 42.2 IU/L
  AST: 75.2 IU/L
  BUN: 10 mg/dL
  CRE: 0.2 mg/dL
  Ca: 11.1 mg/dL
  Cl: 106.2 meq/L
  DBIL: 0.014 mg/dL
  GLC: 178.8 mg/dL
  IP: 8.4 mg/dL
  K: 4.4 meq/L
  LDH: 74.6 IU/L
  Na: 141.8 meq/L
  PL: 137.4 mg/dL
  RALB: 2.6 g/dL
  TBIL: 0.032 mg/dL
  TC: 71.4 mg/dL
  TG: 72.6 mg/dL
  TP: 5.3 g/dL
  gamma-GTP: 1.2 IU/L
6 h
  TERMINAL_BW: 201.2 g
  APTT: 16.2 s
  Bas: 0%
  Eos: 1%
  Fbg: 301.2 mg/dL
  Hb: 13.3 g/dL
  Ht: 41.1%
  Lym: 79.2%
  MCH: 20.6 pg
  MCHC: 32.4%
  MCV: 63.7 fL
  Mono: 2.6%
  Neu: 16.2%
  PT: 14.3 s
  Plat: 130.7 x10_4/uL
  RBC: 646.2 x10_4/ul
  Ret: 8.8%
  WBC: 87.2 x10_2/uL
  KIDNEY_L: 0.9 g
  KIDNEY_R: 0.9 g
  KIDNEY_TOTAL: 1.7 g
  LIVER: 8.5 g
  A/G: 0.9
  ALP: 1217 IU/L
  ALT: 34.4 IU/L
  AST: 70.6 IU/L
  BUN: 9.6 mg/dL
  CRE: 0.2 mg/dL
  Ca: 11 mg/dL
  Cl: 106 meq/L
  DBIL: 0.008 mg/dL
  GLC: 175.8 mg/dL
  IP: 8.9 mg/dL
  K: 4.3 meq/L
  LDH: 76 IU/L
  Na: 142.8 meq/L
  PL: 135 mg/dL
  RALB: 2.5 g/dL
  TBIL: 0.038 mg/dL
  TC: 75.8 mg/dL
  TG: 52.4 mg/dL
  TP: 5.3 g/dL
  gamma-GTP: 1 IU/L
9 h
  TERMINAL_BW: 199.9 g
  APTT: 16.9 s
  Bas: 0%
  Eos: 0.6%
  Fbg: 300 mg/dL
  Hb: 13.5 g/dL
  Ht: 41.9%
  Lym: 80%
  MCH: 21.1 pg
  MCHC: 32.3%
  MCV: 65.3 fL
  Mono: 2.6%
  Neu: 16.2%
  PT: 14.5 s
  Plat: 126.8 x10_4/uL
  RBC: 641.4 x10_4/ul
  Ret: 9.1%
  WBC: 92.7 x10_2/uL
  KIDNEY_L: 0.9 g
  KIDNEY_R: 0.9 g
  KIDNEY_TOTAL: 1.8 g
  LIVER: 8.1 g
  A/G: 0.9
  ALP: 1372.8 IU/L
  ALT: 40.6 IU/L
  AST: 72 IU/L
  BUN: 8.6 mg/dL
  CRE: 0.1 mg/dL
  Ca: 10.7 mg/dL
  Cl: 106.4 meq/L
  DBIL: 0.006 mg/dL
  GLC: 187.4 mg/dL
  IP: 9.8 mg/dL
  K: 4.2 meq/L
  LDH: 68.4 IU/L
  Na: 143.6 meq/L
  PL: 144 mg/dL
  RALB: 2.6 g/dL
  TBIL: 0.034 mg/dL
  TC: 82 mg/dL
  TG: 55 mg/dL
  TP: 5.4 g/dL
  gamma-GTP: 1.2 IU/L
24 h
  TERMINAL_BW: 214.6 g
  APTT: 16.2 s
  Bas: 0%
  Eos: 1%
  Fbg: 317.2 mg/dL
  Hb: 13.3 g/dL
  Ht: 40.9%
  Lym: 76.8%
  MCH: 21.3 pg
  MCHC: 32.6%
  MCV: 65.2 fL
  Mono: 3.6%
  Neu: 17.6%
  PT: 13.9 s
  Plat: 125.8 x10_4/uL
  RBC: 626.4 x10_4/ul
  Ret: 8.2%
  WBC: 92.6 x10_2/uL
  KIDNEY_L: 0.9 g
  KIDNEY_R: 0.9 g
  KIDNEY_TOTAL: 1.8 g
  LIVER: 9.5 g
  A/G: 0.9
  ALP: 1418.8 IU/L
  ALT: 43 IU/L
  AST: 74.6 IU/L
  BUN: 13.2 mg/dL
  CRE: 0.2 mg/dL
  Ca: 11.1 mg/dL
  Cl: 105.8 meq/L
  DBIL: 0.01 mg/dL
  GLC: 174.8 mg/dL
  IP: 7.2 mg/dL
  K: 4 meq/L
  LDH: 80 IU/L
  Na: 143.4 meq/L
  PL: 160.4 mg/dL
  RALB: 2.6 g/dL
  TBIL: 0.026 mg/dL
  TC: 83 mg/dL
  TG: 115.6 mg/dL
  TP: 5.5 g/dL
  gamma-GTP: 1 IU/L
